In ChEMBL document CHEMBL1150720, “Inhibition of mitochondrial NADH oxidase, succinoxidase, and ATPase by naturally occurring flavonoids” (J Nat Prod, 1987):
The source made the active and inactive calls. No cut-off for these calls is given here.

Experiments:
[1] = Inhibition of rat liver mitochondrial ATPase assessed per mg of protein; conditions: read-out: I50
[2] = species on record: Bos taurus; test: Inhibition of beef heart mitochondrial NADH oxidase assessed as specific activity at 0.35 mM preincubated for 15 mins relative to control; set-up: scale not given: the % may be the effect or the level left
[3] = species on record: Bos taurus; test: Inhibition of beef heart mitochondrial succinoxidase assessed as specific activity at 0.35 mM preincubated for 15 mins relative to control; set-up: scale not given: the % may be the effect or the level left
[4] = species on record: Rattus norvegicus; test: Inhibition of rat liver mitochondrial ATPase assessed as specific activity at 0.42 mM relative to control; set-up: scale not given: the % may be the effect or the level left
[5] = Inhibition of beef heart mitochondrial succinoxidase assessed per mg of protein; set-up: species or system Bos taurus; conditions: read-out: I50
[6] = Inhibition of beef heart mitochondrial NADH oxidase assessed per mg of protein; set-up: species or system Bos taurus; conditions: read-out: I50
[7] = species on record: Bos taurus; test: Inhibition of beef heart mitochondrial NADH oxidase assessed as complete enzyme inhibition at 100 nmol/mg

O=c1c(O)c(-c2cc(O)c(O)c(O)c2)oc2cc(O)cc(O)c12 [MYRICETIN]
IC50 [1]: 370 nmol/mg | Activity [2]: 12% | Activity [3]: 14.7% | Activity [4]: 8.4% | IC50 [5]: 45 nmol/mg | IC50 [6]: 35 nmol/mg

O=c1c(O)c(-c2ccc(O)cc2)oc2cc(O)cc(O)c12
Activity [2]: 59.3% | Activity [3]: 84.4% | Activity [4]: 94.2%

C[C@@H]1O[C@@H](OC[C@H]2O[C@@H](Oc3c(-c4ccc(O)c(O)c4)oc4cc(O)cc(O)c4c3=O)[C@H](O)[C@@H](O)[C@@H]2O)[C@H](O)[C@H](O)[C@H]1O [RUTIN]
Activity [2]: 49.1% | Activity [3]: 66.7% | Activity [4]: 66.5% | IC50 [6]: 1890 nmol/mg

O=C1c2c(O)cc(O)cc2O[C@H](c2ccc(O)c(O)c2)[C@H]1O [(+)-TAXIFOLIN]
IC50 [6]: 1040 nmol/mg

O=c1c(O)c(-c2ccccc2)oc2cc(O)cc(O)c12 [GALANGIN]
Activity [2]: 48.6% | Activity [3]: 92.4% | Activity [4]: 99.9% | IC50 [6]: 1670 nmol/mg

O=c1cc(-c2ccccc2)oc2cccc(O)c12 [5-HYDROXYFLAVONE]
Activity [2]: 14.6% | Activity [3]: 95.7% | Activity [4]: 98.9% | IC50 [6]: 425 nmol/mg

O=C1C[C@@H](c2ccc(O)cc2)Oc2cc(O)cc(O)c21 [NARINGENIN]
IC50 [1]: 1800 nmol/mg | Activity [2]: 83.9% | Activity [3]: 84.8% | Activity [4]: 43.6%

O=c1cc(-c2ccc(O)cc2)oc2cc(O)cc(O)c12 [APIGENIN]
Activity [2]: 12.9% | Activity [3]: 93.8% | Activity [4]: 84.6% | IC50 [6]: 920 nmol/mg

O=c1cc(-c2ccccc2)oc2cc(O)cc(O)c12 [CHRYSIN]
Activity [2]: 11.2% | Activity [3]: 75.8% | Activity [4]: 77.7% | IC50 [6]: 250 nmol/mg

O=c1c(O)c(-c2ccc(O)cc2O)oc2cc(O)cc(O)c12 [MORIN]
IC50 [1]: 120 nmol/mg | Activity [2]: 18% | Activity [3]: 31.5% | Activity [4]: 13.3% | IC50 [5]: 730 nmol/mg | IC50 [6]: 430 nmol/mg

COc1ccc(-c2oc3cc(O)cc(O)c3c(=O)c2O)cc1
Activity [2]: 70.6% | Activity [3]: 98.7% | Activity [4]: 96.1%

COc1ccccc1-c1cc(=O)c2c(OC)cccc2o1
Activity [2]: 86.9% | Activity [3]: 80.8% | Activity [4]: 77.3%

O=c1cc(-c2ccccc2)oc2cc(O)ccc12 [7-HYDROXYFLAVONE]
Activity [2]: 54.2% | Activity [3]: 91.3% | Activity [4]: 95.1% | IC50 [6]: 1400 nmol/mg

O=c1c(O)c(-c2ccc(O)c(O)c2)oc2cc(O)ccc12 [FISETIN]
Activity [7]: Active | IC50 [1]: 480 nmol/mg | Activity [2]: 8.3% | Activity [3]: 9.6% | Activity [4]: 17.2% | IC50 [5]: 45 nmol/mg | IC50 [6]: 15 nmol/mg

O=c1cc(-c2ccccc2)oc2ccccc12 [FLAVONE]
Activity [2]: 14.5% | Activity [3]: 82% | Activity [4]: 67.4% | IC50 [6]: 240 nmol/mg

COc1ccc(-c2cc(=O)c3c(O)cc(O)cc3o2)cc1
Activity [2]: 88.6% | Activity [3]: 99.3% | Activity [4]: 98.7%

O=c1c(O)c(-c2ccc(O)c(O)c2)oc2cc(O)cc(O)c12 [QUERCETIN]
IC50 [1]: 205 nmol/mg | Activity [2]: 6.4% | Activity [3]: 21.8% | Activity [4]: 7.1% | IC50 [5]: 715 nmol/mg | IC50 [6]: 145 nmol/mg

O=C1CC(c2ccccc2)Oc2ccccc21 (centres undefined) [FLAVANONE]
Activity [2]: 6.5% | Activity [3]: 84.8% | Activity [4]: 73.4% | IC50 [6]: 310 nmol/mg

O=C1c2ccc(O)cc2O[C@H](c2ccc(O)c(O)c2)[C@H]1O [FUSTIN]
IC50 [6]: 671 nmol/mg

O=c1c(-c2ccc(O)cc2)coc2cc(O)cc(O)c12 [GENISTEIN]
Activity [2]: 6.6% | Activity [3]: 98.3% | Activity [4]: 69.2% | IC50 [6]: 365 nmol/mg
